Source: patent publication US5106842A, “Antibiotic C-3 cyclobutenedione substituted (1-carba)cephalosporin compounds, compositions, and methods of use thereof” (Bristol-Myers Squibb Co., priority 1990, dated 1992)
Converted amounts (≈) assume the structure as drawn. Read-outs that look alike come from different tables or passages of the source.

How the values were obtained:
E. coli A15119 [1] = assay: in vitro MIC vs. E. coli A15119; assay type: cell-based; settings: Escherichia coli
From the text: Also included in the table is the in vitro MIC's.
(§1) MIC (mcg/ml) i.m. vs E. coli A15119

E. coli A15119 [2] = assay: in vivo therapeutic efficacy after intramuscular administration to mice infected intraperitoneally (PD50); settings: Escherichia coli, A15119, im
Protocol: The in vivo therapeutic efficacy of two representative compounds after intramuscular administration to mice infected intraperitoneally with 0.5 ml of various bacterial suspension is shown in Table I. The values are given in PD50 (dose in mg/kg) to give protection to 50% of the infected mice.
as §1

[3] = read-out: PD50 i.m. vs E. coli A15119, 41 LD50

CO/N=C(\C(=O)N[C@@H]1C(=O)N2C(C(=O)O)=C(c3c(N)c(=O)c3=O)CC[C@H]12)c1csc(N)n1 (relative stereo) [Id6]
MIC (E. coli A15119 [1]): 0.06 µg/mL (≈ 0.13 µM)
ED50 (E. coli A15119 [2]; [3]): < 0.098 mg/kg
ED50 (E. coli A15119 [2]; read-out: PD50 i.m. vs E. coli A15119, 143 LD50): 1.7 mg/kg

CO/N=C(\C(=O)N[C@@H]1C(=O)N2C(C(=O)O)=C(c3c(OC(C)C)c(=O)c3=O)CS[C@H]12)c1csc(N)n1 [Id3]
MIC (E. coli A15119 [1]): 1 µg/mL (≈ 1.92 µM)
ED50 (E. coli A15119 [2]; [3]): 1.4 mg/kg
ED50 (E. coli A15119 [2]; mice, i.m. dosing, infected i.p. with 0.5 ml bacterial suspension, challenge 143 LD50, dose protecting 50% of infected mice, read-out: PD50 i.m. vs E. coli A15119, 143 LD50): > 25 mg/kg
